Key:
Assay type in all cases: physicochemical
[1] = dry Sympatec PSD analysis (particle size distribution); conditions: for Particle Size, cumulative distribution Q3 X10 / Particle Size, cumulative distribution Q3 X50 / Particle Size, cumulative distribution Q3 X90: dry Sympatec PSD, after isolation / pre-storage sample
Description: Particle size or particle diameter as used herein can be suitably determined by laser diffraction based methods, for example as described in ISO Standard 13320-1. Laser diffraction particle sizing apparatus such as the Malvern Mastersizer 2000™ can be used.

[2] = storage at 20% relative humidity for 48 hours (DVS, DSC, PSD, SEM); conditions: for Particle Size, cumulative distribution Q3 X10 / Particle Size, cumulative distribution Q3 X50 / Particle Size, cumulative distribution Q3 X90: dry Sympatec PSD, post-storage sample; for DSC trace of the stored sample / variation of particle size after storage (PSD): post-storage; for weight change during storage (DVS mass plot): storage at 20% RH for 48 hours
Description: In order to evaluate the effect of humidity on prolonged storage processed BDP hydrate was subjected to 20% relative humidity (RH) for 48 hours.
The sample recovered after storage was analysed by DSC, TGA, PSD and SEM.
In order to evaluate the effect of humidity on prolonged storage anhydrous BDP was subjected to 20% relative humidity (RH) for 48 hours. The pre-storage sample was characterized by TGA, DSC, PSD and SEM analysis.
The sample recovered after storage was analyzed by DSC, PSD and SEM.

[3] = microscope imaging / SEM of particles; conditions: for largest particles or clusters observed (microscope imaging / SEM): after supercritical CO2 isolation; for particle size in suspension prior to isolation (microscope imaging): partially agglomerated particles, before supercritical CO2 isolation
[4] = after supercritical CO2 isolation

Row | SMILES | Particle Size, cumulative distribution Q3 X10 [1] | Particle Size, cumulative distribution Q3 X50 [1] | Particle Size, cumulative distribution Q3 X90 [1] | stability on prolonged storage ([2]; 20% RH for 48 hours, compared with anhydrous BDP) | Particle Size, cumulative distribution Q3 X10 ([2]; 20% RH for 48 hours) | Particle Size, cumulative distribution Q3 X50 ([2]; 20% RH for 48 hours) | Particle Size, cumulative distribution Q3 X90 ([2]; 20% RH for 48 hours) | DSC trace of the stored sample ([2]; 20% RH for 48 hours) | variation of particle size after storage (PSD) ([2]; 20% RH for 48 hours) | time to steady state in DVS mass plot ([2]; storage at 20% RH) | weight change during storage (DVS mass plot) [2] | largest particles by dry Sympatec PSD analysis ([1]; after supercritical CO2 isolation, bimodal distribution) | largest particles or clusters observed (microscope imaging / SEM) [3] | particle size in suspension prior to isolation (microscope imaging) [3] | size of larger clusters or agglomerates by dry Sympatec PSD analysis [1, 4] | size of most particles by dry Sympatec PSD analysis [1, 4]
1 | CCC(=O)OCC(=O)[C@@]1(OC(=O)CC)[C@@H](C)C[C@H]2[C@@H]3CCC4=CC(=O)C=C[C@]4(C)[C@@]3(Cl)[C@@H](O)C[C@@]21C.O [BDP hydrate] | 0.51 μ | 1.35 μ | 3.17 μ | higher stability on prolonged storage than anhydrous BDP | 0.51 μ | 1.37 μ | 2.95 μ | no variation in the thermal behavior | no significant variation of particle size | about 1500 minutes | considerable weight loss due to partial dehydration | – | – | – | – | –
2 | CCC(=O)OCC(=O)[C@@]1(OC(=O)CC)[C@@H](C)C[C@H]2[C@@H]3CCC4=CC(=O)C=C[C@]4(C)[C@@]3(Cl)[C@@H](O)C[C@@]21C [Comparative Example 1] | 1.26 μ | 12.58 μ | 61.27 μ | – | – | – | – | – | – | – | – | up to 150 μm | up to 100 μm | up to 5 μm | – | –
3 | CCC(=O)OCC(=O)[C@@]1(OC(=O)CC)[C@@H](C)C[C@H]2[C@@H]3CCC4=CC(=O)C=C[C@]4(C)[C@@]3(Cl)[C@@H](O)C[C@@]21C [Comparative Example 2] | 0.84 μ | 3.58 μ | 8.76 μ | – | – | – | – | – | – | – | – | – | up to 10 μm | up to 5 μm | > 20 μm | ~4 μm
4 | CCC(=O)OCC(=O)[C@@]1(OC(=O)CC)[C@@H](C)C[C@H]2[C@@H]3CCC4=CC(=O)C=C[C@]4(C)[C@@]3(Cl)[C@@H](O)C[C@@]21C [anhydrous BDP, anhydrous beclomethasone diproprionate] | 0.43 μ | 1.10 μ | 2.24 μ | – | 0.42 μ | 1.07 μ | 2.10 μ | formation of BDP hydrate | no significant variation of particle size | – | considerable weight changes | – | – | – | – | –
